According to PMC7307922 (Journal of Medicinal Chemistry, 2020):
Numbering of substitutions follows the chain as printed. pEC50: −log10 of the molar value. ≈ marks a conversion by molar mass, not a printed value. Where “and” joins values, the source holds several entries; their conditions need not be identical. Identical values can stand only once. Like-named read-outs stand apart in the source and are kept apart here.

Key:
[1] = Kinetic aqueous solubility in PBS pH 7.4; format: physicochemical; settings: for solubility: pH 7.4, read-out: Aq. solub.
Experimental: (§1) Solubility and log D7.4 measurements were performed in accordance to the previously published procedures.[35]

log D7.4 measurement = format: physicochemical; settings: pH 7.4; read-out: logD7.4
Experimental: as §1

[2] = Stability toward mouse liver microsomes; settings: remaining after 40 min incubation with MLMs
Experimental: The study was performed by Bienta (www.bienta.net). Mouse hepatic microsomes were isolated from pooled and perfused livers of male BALB/c mice (n = 50). Isolation was performed according to the standard protocol.[36]
Microsomal incubations were carried out in 96-well plates in 5 aliquots of 40 μL each (one for each time point). Liver microsomal incubation medium comprised PBS (100 mM, pH 7.4), MgCl2 (3.3 mM), NADPH (3 mM), glucose-6-phosphate (5.3 mM), and glucose-6-phosphate dehydrogenase (0.67 units/mL) with 0.42 mg of liver microsomal protein per ml. In the control reactions, the NADPH-cofactor system was substituted with PBS. […] Each reaction was performed in duplicates. Five time points over 40 min were analyzed. The reactions were stopped by adding 12 volumes of 90% acetonitrile–water to incubation aliquots, followed by protein sedimentation by centrifuging at 5500 rpm for 3 min. […]. Supernatants were analyzed using HPLC-MS/MS on an API 3000 PE instrument.

hFFA3 [3] = target: T1, hFFA3 (Homo sapiens, UniProt O14843); experiment: cell-based; settings: for Emax: HEK293, read-out: cAMP Emax; for cAMP pEC50: hFFA3, compound alone, mean of ≥3 independent experiments ± standard error
T1 sequence (O14843 1-346): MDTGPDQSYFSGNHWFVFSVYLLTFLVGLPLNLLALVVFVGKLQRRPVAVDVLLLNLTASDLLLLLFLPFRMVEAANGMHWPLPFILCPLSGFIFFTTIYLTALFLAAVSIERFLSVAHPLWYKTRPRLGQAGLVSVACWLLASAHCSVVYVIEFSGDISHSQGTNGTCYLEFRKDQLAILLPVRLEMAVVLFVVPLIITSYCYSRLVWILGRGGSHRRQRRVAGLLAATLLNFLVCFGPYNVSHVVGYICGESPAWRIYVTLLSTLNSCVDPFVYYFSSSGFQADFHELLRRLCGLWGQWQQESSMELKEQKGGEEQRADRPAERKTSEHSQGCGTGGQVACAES
Experimental: (§2) The ligands were initially screened in a human FFA3-dependent [^35S]GTPγS binding assay as this assay reflects receptor-mediated activation of Gi/o proteins and is known to generally correlate well with ligand affinity.[30] Analogues of particular interest were tested further in a cAMP inhibition assay as this is an important downstream effect of Gi-activation. […] It is furthermore performed in whole cells, is more downstream, includes G protein signal amplification, and therefore better reflects a more natural ligand–receptor response.
HEK293 Flp-In T-Rex cells stably transfected with FFA3-eYFP receptors were incubated overnight with doxycycline to induce expression, then harvested, and cryopreserved. On the day of each experiment, cells were thawed and resuspended in stimulation buffer. Assays were carried out using a 384-well plate format with 3000 cells/well using the CisBio cAMP GS dynamic kit as per manufacturer’s protocol. Compounds were tested for the ability to inhibit 0.3 μM forskolin-induced cAMP production after co-incubation for 1 h. Reactions were measured using a PHERAstar FS plate reader (BMGLabtech, Aylesbury, UK).

hFFA3 Q131A = target: T2, hFFA3 Q131A (Homo sapiens, UniProt O14843, Q131A); experiment: Potency at FFA3 mutant Q131A; format: cell-based
T2 sequence (O14843 1-346 Q131A): T1 sequence (O14843 1-346) with Q131A
Experimental: (§3) The previously published compound 1 was not affected by mutation of either R185A or R258A in the orthosteric binding site, and the compounds were therefore believed to be allosteric modulators. […] After the publication of the FFA1 crystal structure in complex with an allosteric agonist located in the TM region close to the intracellular site,[32] a homology model of hFFA3 was constructed using Modeller. […] Thus, additional docking of (R)-1 in this site were performed to find poses where Q131, but not R126, show a central role in binding. […] The narrow binding cavity around the core scaffold is in agreement with the restrained SAR observed for this series and the furan moiety pointing out of the binding cavity might explain the flexibility in substituents at this site (Figure 3c,d). Although Q131A impacts the potency of (R)-1 with high significance, the magnitude of the effect is lower than what would be generally expected for the removal of a hydrogen bond interaction; thus, additional studies are required to confirm the proposed binding site.

hFFA3 E112A = target: T3, hFFA3 E112A (Homo sapiens, UniProt O14843, E112A); experiment: Potency at FFA3 mutant E112A; format: cell-based
T3 sequence (O14843 1-346 E112A): T1 sequence (O14843 1-346) with E112A
Experimental: as §3

hFFA3 R126A = target: T4, hFFA3 R126A (Homo sapiens, UniProt O14843, R126A); experiment: Potency at FFA3 mutant R126A; format: cell-based
T4 sequence (O14843 1-346 R126A): T1 sequence (O14843 1-346) with R126A
Experimental: as §3

hFFA3 [4] = target: T1, hFFA3; experiment: biochemical; settings: for GTPγS pEC50: hFFA3, mean of ≥3 independent experiments ± standard error
Experimental: as §2
Membranes were isolated from Flp-In T-REx HEK293 cells treated with 100 ng/mL doxycycline to induce receptor expression. Cells were washed with ice-cold phosphate-buffered saline and removed from dishes by scraping before being centrifuged for 5 min at 4 °C, 3000 rpm. Pellets were resuspended in TE buffer (75 mM Tris–HCl, 5 mM EDTA; pH 7.5) with the addition of a protease inhibitor mixture (Roche Applied Science, West Sussex, UK). This was then homogenized with a 5 mL hand-held homogenizer and subsequently centrifuged at 1500 rpm for 5 min at 4 °C, from which the supernatant was collected and further centrifuged at 50 000 rpm for 30 min at 4 °C. The resulting pellet was resuspended in TE buffer, and the protein content was measured using a BCA protein assay kit (Pierce, Fisher Scientific, Loughborough, UK).
Reactions were initiated with the addition of [^35S]GTPγS at 50 nCi per tube; reactions were terminated after 1 h of incubation at 25 °C by rapid filtration through GF/C glass filters using a 24-well Brandel cell harvester (Alpha Biotech, Glasgow, UK). Unbound radioligand was removed from filters by washing three times with ice-cold wash buffer (50 mM Tris–HCl, pH 7.4, and 10 mM MgCl2), and [^35S]GTPγS binding was determined by liquid scintillation spectrometry.

hFFA3 [5] = target: T1, hFFA3; parameters: expressed in transfected cells; host or cells: Flp-In T-REx HEK293 (membranes); method as in PMID 24870406; settings: previously characterized; cited from earlier work
[6] = efficacy relative to maximal response of propionate

Compound: CC1=C(C(=O)Nc2cc(Cl)ccc2Cl)C(C2CC2)C2=C(CCCC2=O)N1 (stereo not drawn) [Compound 62, 4-Cyclopropyl-N-(2,5-dichlorophenyl)-2-methyl-5-oxo-1,4,5,6,7,8-hexahydroquinoline-3-carboxamide]
- solubility ([1]; phosphate buffered saline): 5 µM (≈ 1.96 µg/mL)
- logD at 24 h (log D7.4 measurement): 3.73
- MLM (%) remaining [2]: 1−2% and 1%

Compound: CCCC1C(C(=O)Nc2ccccc2Cl)=C(C)NC2=C1C(=O)CCC2 (stereo not drawn) [Compound 58, N-(2-Chlorophenyl)-2-methyl-5-oxo-4-propyl-1,4,5,6,7,8-hexahydroquinoline-3-carboxamide]
- increase of solubility compared to 57 ([1]; kinetic solubility): 4–5 fold
- solubility ([1]; phosphate buffered saline): 169 µM (≈ 60.6 µg/mL)
- logD at 24 h (log D7.4 measurement): 3.22
- Emax (hFFA3 [3]): 105%
- cAMP pEC50 (hFFA3 [3]): 6.06 ± 0.05

Compound: CC1=C(C(=O)Nc2cc(Cl)ccc2Cl)C(c2cscn2)C2=C(CCCC2=O)N1 (stereo not drawn) [Compound 49, N-(2,5-Dichlorophenyl)-2-methyl-5-oxo-4-(thiazol-4-yl)-1,4,5,6,7,8-hexahydroquinoline-3-carboxamide]
- solubility ([1]; phosphate buffered saline): < 1 µM
- logD at 24 h (log D7.4 measurement): 3.28
- Emax (hFFA3 [3]): 95%
- cAMP pEC50 (hFFA3 [3]): 5.71 ± 0.08

Compound: CC1=C(C(=O)Nc2cc(Cl)ccc2Cl)C(c2ncco2)C2=C(CCCC2=O)N1 (stereo not drawn) [Compound 51, N-(2,5-Dichlorophenyl)-2-methyl-4-(oxazol-2-yl)-5-oxo-1,4,5,6,7,8-hexahydroquinoline-3-carboxamide]
- solubility ([1]; phosphate buffered saline): 1 µM (≈ 0.418 µg/mL)
- logD at 24 h (log D7.4 measurement): 2.59
- Emax (hFFA3 [3]): 95%
- cAMP pEC50 (hFFA3 [3]): 6.72 ± 0.05
- MLM (%) remaining [2]: 12%

Compound: propionate [Compound C3, reference compound]
- effect of mutation Q131A on potency (hFFA3 Q131A): did not affect
- effect of mutation E112A on potency (hFFA3 E112A): did not affect
- cAMP Emax (hFFA3 [3]; [6]): 100
- cAMP pEC50 (hFFA3 [3]): 4.93 ± 0.10
- effect of mutation R126A on potency (hFFA3 R126A): did not affect
- GTPγS Emax (hFFA3 [4]; [6]): 100
- GTPγS pEC50 (hFFA3 [4]): 4.97 ± 0.08

Compound: CC1=C(C(=O)Nc2ccccc2C)C(c2ccccc2Br)C2=C(CCCC2=O)N1 (stereo not drawn) [Compound 5]
- activity alone and with propionate (hFFA3 [5]): inactive alone but to act as a PAM of propionate
- GTPγS pEC50 (hFFA3 [4]): nr^e

Compound: CCCC1C(C(=O)Nc2cccc(Cl)c2)=C(C)NC2=C1C(=O)CCC2 (stereo not drawn) [Compound 59, N-(3-Chlorophenyl)-2-methyl-5-oxo-4-propyl-1,4,5,6,7,8-hexahydroquinoline-3-carboxamide]
- increase of solubility compared to 57 ([1]; kinetic solubility): 4–5 fold
- solubility ([1]; phosphate buffered saline): 137 µM (≈ 49.2 µg/mL)
- logD at 24 h (log D7.4 measurement): 3.77
- Emax (hFFA3 [3]): 105%
- cAMP pEC50 (hFFA3 [3]): 5.97 ± 0.05

Compound: CCCC1C(C(=O)Nc2cc(C)ccc2Cl)=C(C)NC2=C1C(=O)CCC2 (stereo not drawn) [Compound 60, N-(2-Chloro-5-methylphenyl)-2-methyl-5-oxo-4-propyl-1,4,5,6,7,8-hexahydroquinoline-3-carboxamide]
- solubility ([1]; phosphate buffered saline): 145 µM (≈ 54.1 µg/mL)
- logD at 24 h (log D7.4 measurement): 3.57
- Emax (hFFA3 [3]): 103%
- cAMP pEC50 (hFFA3 [3]): 6.19 ± 0.10

Compound: CC1=C(C(=O)Nc2cc(Cl)ccc2Cl)C(c2nccs2)C2=C(CCCC2=O)N1 (stereo not drawn) [Compound 47, N-(2,5-Dichlorophenyl)-2-methyl-5-oxo-4-(thiazol-2-yl)-1,4,5,6,7,8-hexahydroquinoline-3-carboxamide]
- solubility [1]: 1 µM (≈ 0.434 µg/mL)
- solubility ([1]; phosphate buffered saline): 2 µM (≈ 0.869 µg/mL)
- logD at 24 h (log D7.4 measurement): 3.39
- MLM (%) remaining [2]: 2%

Compound: CC1=C(C(=O)Nc2cc(Cl)ccc2Cl)C(c2cocn2)C2=C(CCCC2=O)N1 (stereo not drawn) [Compound 50, N-(2,5-Dichlorophenyl)-2-methyl-4-(oxazol-4-yl)-5-oxo-1,4,5,6,7,8-hexahydroquinoline-3-carboxamide]
- increase of solubility relative to 16 ([1]; kinetic solubility): > 10 fold
- solubility ([1]; phosphate buffered saline): 62 µM (≈ 25.9 µg/mL)
- logD at 24 h (log D7.4 measurement): 2.84
- Emax (hFFA3 [3]): 97%
- cAMP pEC50 (hFFA3 [3]): 5.78 ± 0.03

Compound: CCCC1C(C(=O)Nc2ccccc2C)=C(C)NC2=C1C(=O)CCC2 (stereo not drawn) [Compound 35, 2-Methyl-5-oxo-4-propyl-N-(o-tolyl)-1,4,5,6,7,8-hexahydroquinoline-3-carboxamide]
- solubility ([1]; phosphate buffered saline): 199 µM (≈ 67.4 µg/mL)
- logD (log D7.4 measurement): 2.64
- Emax (hFFA3 [3]): 101%
- PAM pEC50 (hFFA3 [3]; cAMP assay in the presence of 1 μM propionate): 6.16 ± 0.10
- cAMP pEC50 (hFFA3 [3]): 5.92 ± 0.01
- MLM (%) remaining [2]: 23%

Compound: CC1=C(C(=O)Nc2ccccc2C)[C@H](c2ccco2)C2=C(CCCC2=O)N1 [(R)-1]
- reduction of potency by mutation Q131A (hFFA3 Q131A; p < 0.001): > 3 fold
- effect of mutation E112A on potency (hFFA3 E112A): did not affect
- pEC50 (hFFA3 [3]): 6.53
- effect of mutation R126A on potency (hFFA3 R126A): did not affect
